Assay results from patent US20050187288A1, “Beta-lapachone and methods of treating cancer” (priority 2004, published 2005).
Read-outs that look alike come from different tables or passages of the source.

Key:
[1] = test system: HT-29 human colon cancer cells; test: Human colon cancer xenograft model; type: in vivo, mice
Procedure: The animals were randomized into three groups. […] Mean tumor volume was then analyzed.

A549 lung cancer cells = test: cells; conditions: Homo sapiens, A549, read-out: LC50, A549 Clone B surviving >LC99
[2] = test system: human breast cancer cells (MCF-7); test: Colony formation assay, cancer vs normal breast cells; type: cell-based; conditions: MCF-7, 4 h treatment
Description: After 10-20 days, cells were fixed and stained with modified Wright-Giemsa stain.

SK-OV-3 = test: cells; conditions: Homo sapiens, SK-OV-3, read-out: LC50 (Replicate Results), SK-OV-3, 4 hour exposure, colonies after 14-21 days
Procedure: (§2) Control plates received the same volume of DMSO alone. After a 4 hour exposure the drug was carefully removed, and drug-free medium could be added. […] Colonies of greater than 50 cells were scored as survivors. Cells were maintained at 37° C. in 5% CO2 in complete humidity.

[3] = test system: multiple myeloma (MM) cells; test: MTT assay of multiple myeloma cells; type: cell-based, human; conditions: 4 μM, 24 h, all seven MM cell lines
E2F-1 = E2F-1 protein expression by Western blot in Paca-2 cells; type: cell-based, human; conditions: 0.5 hours exposure
Procedure: Cells were harvested and whole cell lysates were prepared and resolved by SDS/PAGE, then Western blots were prepared using E2F-1 antibody obtained from Santa Cruz Biotechnology (Santa Cruz, Calif.) and an enhanced chemiluminescence assay system (Amersham Pharmacia).

[4] = Study 3A: neuropharmacological profile in rats
Procedure: In Study No. 3A, four groups of ten male Sprague-Dawley rats were dosed with a single 1 hour intravenous infusion via the tail vein at doses of 0 (vehicle), 5, 25, and 60 mg/kg as shown in Table 12.
Following dosing, animals were placed in a fixed environment consisting of a Plexiglas square, fitted with a lid and placed on absorbent paper to detect excretions.
Body temperatures were taken on all animals at 15 minutes following dose administration.

[5] = Study 1B: dose-range-finding single dose intravenous toxicity study in rats
Description: In Study No. 1B, five groups of six adult Sprague-Dawley rats (three male and three female) were randomized to treatment groups and treated via intravenous infusion as shown in
Other observations included clinical signs, body weights and food consumption. On Day 8, animals were anesthetized with CO2 and blood for testing was collected by cardiocentesis, then animals were euthanized by CO2 asphyxiation and subjected to gross necropsy with histopathological evaluation performed on major organs (lungs, heart, liver, brain, spleen and kidneys).

[6] = Binding to human plasma proteins by equilibrium dialysis; type: in vitro ADME; conditions: human, pooled human plasma; 2-25 μM, 37° C.; read-out: protein binding (converted)
Procedure: (§1) The plasma aliquots were incubated at 37° C. for 1 h, and then were dialyzed against PBS buffer at 37° C. for 4 h using Dianorm Equilibrium Dialysers.

human plasma proteins = test: as above; type: in vitro ADME; conditions: 2-25 μM, 37° C.
Procedure: as §1

[7] = in vivo
[8] = Reversibility of binding to human plasma proteins; type: in vitro ADME; conditions: pooled human plasma, dialyzed three times against fresh plasma, 37° C., read-out: fraction in plasma reversibly bound to plasma proteins
Procedure: The spiked plasma was incubated at 37° C. for 1 h, and then was dialyzed three times against fresh plasma aliquots at 37° C.

in vivo = conditions: Sprague-Dawley, rat, 10 mg/kg, AUC* (estimated from toxicology experiments)
CAOV-3 [9] = test: cells; conditions: Homo sapiens, Caov-3, read-out: LC50 (Replicate Results), CAOV-3, 4 hour exposure, colonies after 14-21 days
Procedure: as §2

60 cancer cell lines = test: NCI in vitro screen of 60 cancer cell lines, sulforhodamine B assay; type: cell-based; conditions: Homo sapiens, 60 cell, read-out: LC50 (log10 molar concentration causing 50% lethality), mean across all cells (converted)
Procedure: The NCI screen includes cell lines isolated from leukemia, non-small cell lung cancer (NSCLC), colon, […] (CNS), melanoma, ovarian, renal, prostate and breast cancer tissues.
The NCI assays were performed under standardized conditions and use the sulforhodamine B assay as the endpoint. The NCI set of 60 lines included nine colon cancer cell lines (COLO 205, DLD-1, HCC-2998, HCT-116, HCT-15, HT29, KM12, KM20L2, and SW-620).
The NCI assays were performed under standardized conditions and use the sulforhodamine B assay as the endpoint. The NCI set of 60 lines included twelve non-small cell lung cancer cell lines (A549, EKVX, HOP-18, HOP-19, HOP-62, HOP-92, NCI-H226, NCI-H23, NCI-H322M, NCI-H460, NCI-H522, and LXFL 529), and three small cell lung cancer cell lines (DMS 114, DMS 273, AND SHP-77).

[10] = Pharmacokinetic profile of intraperitoneal dosing in mice, Lipiodol formulation; conditions: IP 150 mg/m^2 in Lipiodol
Procedure: A study was performed to determine the pharmacokinetic profile of intraperitoneal (IP) dosing in mice.

[11] = Study 6B: two week intravenous repetitive dose toxicity study in rats; conditions: 45 mg/kg, one animal, Day 15
HCT-116 = test: cells; conditions: Homo sapiens, HCT-116, read-out: LC50 (Replicate Results), HCT-116, 4 hour exposure, colonies after 14-21 days
Procedure: as §2
Control plates received the same volume of DMSO alone. After a 4 hour exposure the drug was carefully removed, and drug-free medium was added. […] Colonies of greater than 50 cells were scored as survivors. Cells were maintained at 37° C. in 5% CO2 in complete humidity. Each “Replicate Result” represents the result of a separate experiment.

CAOV-3 [12] = conditions: human, 4 h
Procedure: as §2

ASPC-1 = test: Colony formation assay, combination with Taxol; type: cell-based, human; conditions: β-Lapachone 4 μM, Taxol 0.2 μM, 4 hours
Procedure: Control wells were treated with equivalent volumes of DMSO. After 4 hours cells were rinsed and fresh medium is added. Cultures were observed daily for 10-20 days and then were fixed and stained. […] DNA laddering formation and annexin staining indicate that cell death is due to apoptosis.

[13] = Study 1A: repetitive weekly intravenous toxicity study in rats
human PBMC = test: MTT cytotoxicity on PBMC; type: cell-based; conditions: 0.5, 2, 4, and 8 μM for 24 h
Procedure: Proliferating PBMC were generated by 72 h incubation with phytohemagglutinin (PHA) at 2 μg/mL.

[14] = Study 5B: four week intravenous toxicity study in rats; conditions: for creatine kinase elevation: Day 1
Description: Blood samples were taken for hematology and clinical chemistry (Days 1, 15 and 24) and coagulation (Day 24 only) and clinical chemistry evaluation.

CC1(C)CCC2=C(O1)c1ccccc1C(=O)C2=O [β-lapachone, 3,4-dihydro-2,2-dimethyl-2H-naphtho [1,2-b]pyran-5,6-dione]
reduction of mean tumor volume ([1]; 60 mg/kg IP every three days, 10 treatments): approximately 75% | toxicity ([1]; mouse, in vivo): No sign of significant toxicity | CC50 (A549 lung cancer cells): 1.5 µM | concentrations giving essentially complete elimination of colonies [2]: ≥ 24 µM | CC50 (SK-OV-3): 1.18 µM | cell viability in cultures [3]: significantly decreased | lowest concentration tested, at which E2F-1 protein is induced (E2F-1): 0.5 µM | animals that died during the infusion ([4]; 60 mg/kg at 6 mg/ml): Five of the ten animals | mean body temperature ([4]; 60 mg/kg, 15-minutes post dosing): 34.6 °C | NOEL ([4]; single intravenous dose, male Sprague Dawley rats): 25 mg/kg | clinical signs ([5]; 60 mg/kg, 1-2 hours after dosing, resolved by Day 2): transient clinical signs | histopathological findings ([5]; 75 mg/kg group): Minimal to mild hepatocellular vacuolation and renal tubular epithelial pallor and attenuation | mortality and clinical signs ([5]; 30 or 45 mg/kg dose groups): No mortality or clinical signs of toxicity | hematology and serum chemistry values ([5]; all groups): generally unremarkable | NOEL ([5]; single one-hour intravenous dose at 3 mg/ml, male and female rats): 45 mg/kg | fraction unbound at 4 h [6]: 0.07 | amount of free compound in human plasma (human plasma proteins): approximately 7% | doses without significant toxicity ([7]; Sprague-Dawley (Hsd:SD) rats, Beagle dogs, rat and dog, iv, 4 weeks): less than 270 mg/m^2 | bone marrow suppression, gastrointestinal toxicity, alopecia [7]: no evidence of bone marrow suppression, gastrointestinal toxicity or alopecia | major organ toxicity (myelosuppression, hepatic, renal, neurotoxicity, cardiotoxicity) [7]: No evidence of major organ toxicity | fraction unbound at 10 μM [8]: ≤ 0.35 | AUC (in vivo): 2640 ng·h/mL | CC50 (CAOV-3 [9]): 1.56 µM | CC50 (60 cancer cell lines): 8.51 µM | peak plasma level [10]: approximately 8 μM | time at which peak plasma levels were achieved [10]: within one-half hour | total bilirubin ([11]; ULN 0.27): 0.46 mg/dL | blood urea nitrogen ([11]; ULN 19): 40 mg/dL | creatinine phosphokinase ([11]; ULN 513): 553 IU/L | CC50 (HCT-116): 2.29 µM | CC50 (CAOV-3 [12]): 1.44 µM | Colonies, Percentage of control (ASPC-1): 45 (1.9) Percentage of control | NOEL ([13]; Study 1A): 10 mg/kg/dose | bilirubin (slight increase) ([13]; high dose animals, Days 2 and 23, ULN 0.27 mg/dl): 0.33 mg/dL | decrease in hemoglobin ([13]; mid- and high-dose animals, normalized by Day 37): < 2 g/dL | cytotoxicity to fresh or proliferating PBMC growth (human PBMC): No cytotoxicity | mortality and clinical signs ([14]; 30 mg/kg dose group): No mortality or clinical signs of toxicity | creatine kinase elevation ([14]; 30 mg/kg): 2 fold upper limit of normal | creatine kinase elevation ([14]; 45 mg/kg): 4 fold upper limit of normal | reticulocyte count ([14]; high dose group (45 mg/kg), Day 15, controls 2.1%): 4.1%
